For data set [1], the target named is T1, glucocorticoid receptor (Homo sapiens, UniProt P04150).
T1 sequence (P04150 1-777): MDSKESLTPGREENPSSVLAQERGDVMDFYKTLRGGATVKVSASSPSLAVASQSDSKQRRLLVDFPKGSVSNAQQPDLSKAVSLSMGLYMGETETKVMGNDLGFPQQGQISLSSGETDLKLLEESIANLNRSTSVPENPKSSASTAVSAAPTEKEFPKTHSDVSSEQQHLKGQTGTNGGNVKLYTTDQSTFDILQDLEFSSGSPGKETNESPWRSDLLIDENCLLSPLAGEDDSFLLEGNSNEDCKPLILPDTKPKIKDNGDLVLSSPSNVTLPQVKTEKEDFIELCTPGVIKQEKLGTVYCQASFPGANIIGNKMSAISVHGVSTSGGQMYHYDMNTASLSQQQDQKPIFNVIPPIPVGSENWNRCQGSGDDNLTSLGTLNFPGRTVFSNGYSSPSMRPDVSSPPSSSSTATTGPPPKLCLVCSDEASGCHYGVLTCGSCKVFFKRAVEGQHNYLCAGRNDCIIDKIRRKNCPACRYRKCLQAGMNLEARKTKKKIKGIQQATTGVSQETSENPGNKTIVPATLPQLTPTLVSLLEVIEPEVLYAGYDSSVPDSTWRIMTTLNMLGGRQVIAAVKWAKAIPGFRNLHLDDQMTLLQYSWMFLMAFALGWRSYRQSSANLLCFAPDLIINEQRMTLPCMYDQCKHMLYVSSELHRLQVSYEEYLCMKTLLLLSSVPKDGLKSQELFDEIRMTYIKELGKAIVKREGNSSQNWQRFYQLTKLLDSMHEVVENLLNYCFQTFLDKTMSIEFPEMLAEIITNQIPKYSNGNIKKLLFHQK
In words: Transrepression assay using artificially expressed glucocorticoid receptor and P65 in the COS 7 cell line (NRE luciferase). Format: cell-based. Also on record: expressed in transfected cells; host or cells: COS 7 (African green monkey kidney, deficient in endogenous GR). The note with it: 1, 10 and 100 nM. The method, then:
All transfections were performed using lipofectamine plus (Gibco BRL), according to the manufacturers' instructions, as previously described^1. Briefly, all cells were seeded at 5×10^5 per 10 cm tissue culture plate 18 hours before transfection, the next day the relevant plasmids were mixed with serum free medium and “Plus” reagent (Gibco BRL) and incubated for 15 mins, lipofectamine reagent was added and the mix was incubated for a further 15 mins, this mix was added to the cells on serum free medium in the 10 cm tissue culture plates and left for 3 hours, the cells were then trypsinised and divided into 24 well plates, the cells were left to recover overnight and were treated with steroid for 16 hours before harvest. All experiments were performed from one transfection in triplicate and on separate occasions with similar results.
The firefly luciferase gene catalyses the production of light from the substrate luciferin. When plasmid constructs containing this gene are transfected into cell lines the activity of the gene can be assessed by the intensity of the luminesence. The luciferase assay yields luminescence through an ATP-dependent oxidation of luciferin the amount of light produced can be measured by a luminometer and is a measure of gene activity (Davis, 1996). Light intensity was measured in a Luminometer (LB 9501, Berthold). The light intensity should be proportional to luciferase concentration in the range of 10^−16M (10 μg/L) to 10^−8M (1 mg/L). To measure the luminescence of the treated cells 150 μl of 1× reporter lysis buffer (RLB: 25 mM Tris phosphate pH7.8, 10 mM MgCl2, 15% Glycerol, 1% Triton, 1 mM EDTA) was added to the 24 well plates to lyse the cells and incubated at room temperature for 30 mins whilst being shaken. Then 100 μl of the room temperature cell extract were mixed with 100 μl of room temperature Luciferase Assay Reagent (LAR: 1 mM ATP, 0.3 mM D-Luciferin, 66% RLB). This reaction was mixed in a luminometer (LB 9501, Berthold) and the light produced was measured for a period of 5 seconds.
To perform this assay the GR and p65 were artificially expressed in a cell line lacking GR and deficient in endogenous P65. The ability of P65 to activate an NFkB response element (NRE) “driving” a luciferase reporter gene could then be repressed by GR in a ligand dependent manner and, therefore, used to measure transrepression.
COS7 cells were transfected with 1 μg pcDNA3-GR and 3 μg NRE-Luc and 200 ng p65 per 10 cm tissue culture dish. The cells were plated out in to 24 well plates after transfection and left for 18 hours to recover before the steroids of FIGS. 1 and 2A were added. After another 18 hour incubation the cells were lysed and a luciferase assay was performed.

Data set [2] concerns IL-8. In words: Repression of endogenous IL-8 in A549s. Format: cell-based, human. The note with it: A549 cells; compound G at 100 nM, p=0.0076. The text has this: (§1) The A549 cell line (ECACC:86012804) is derived from the human lung epithelial cells from a carcinoma. This cell line contains functional endogenous GR and is stimulated by Tumour Necrosis Factor (TNF) to produce IL-8.
In this assay TNF was used to stimulate NFkB activity in a cell line that expressed endogenous GR. The ability of NFkB to induce IL-8 gene transcription could then be repressed by GR in a ligand dependent manner and, therefore, used to measure transrepression.
COS7 cells were transfected with 3 μg NRE-Luc per 10 cm tissue culture dish. The cells were plated out in to 24 well plates after transfection and left for 18 hours to recover before the steroids of FIGS. 1 and 2A were added. After incubation for 3 hours with the steroids, TNF was added to the samples and after another 15 hours an IL-8 assay (R&D systems) was performed on the cell supernatants according to the manufacturers instructions. Briefly, triplicates of 100 μl of a 1:2 dilution of cell supernatant and 100 μl of a known dilution series of IL-8 were added to the wells of a microtitre plate coated with a monoclonal IL-8 antibody, the samples were incubated with a polyclonal biotinylated IL-8 antibody for 1 hour at room temperature and washed. Streptavidin horse radish peroxidase solution was then added to all wells and incubated for 30 mins before being washed. Tetramethyl benzidine (TMB; a chromagen) was added to all the wells and incubated in the dark for 10 mins, the reaction was stopped by the addition of H2SO4 and the absorbance of each well was read on a spectrophotometer using 450 nm as the primary wavelength. Regression analysis was performed on the standard data and the unknowns were expressed as pg/ml of IL-8 in comparison to the standards.

The target of data set [3] is T2, GFP tagged GR (Homo sapiens, UniProt P04150).
T2 construct: expressed in transfected cells; host or cells: COS 7
T2 sequence (P04150 1-777): T1 sequence (P04150 1-777)
As to the kind of experiment: Nuclear translocation using GFP tagged GR and fluorescent microscopy. In kind it is cell-based. The following applies: COS 7 cells, 100 nM, 3 hours. The text has this:
The un-liganded GR is present in the cytoplasm of cells in association with heat shock proteins (HSPs). The binding of an agonist ligand to the GR causes dissociation from the HSPs and translocation to the nucleus. A type I antagonist ligand can bind to the GR but cannot translocate to the nucleus. A type II antagonist ligand can bind to the GR, translocate to the nucleus and bind to DNA but cannot activate gene transcription. Therefore, the ability of a putative ligand to translocate the GR helps to determine its status as an agonist or antagonist. COS 7 cells were transfected with 5 μg of a green fluorescent protein (GFP) tagged GR expression vector. After transfection, these cells were split into 6 well plates with sterile microscope cover slips placed at the bottom of each well. The cells were allowed to recover for 18 hours and then the medium was removed, the cells were washed three times with sterile phosphate buffered saline (PBS) and new medium was added containing charcoal stripped FCS in place of normal FCS. The cells were incubated for 18 hours and then the steroids of FIGS. 1 and 2A were added to make a final concentration of 100 nM. The cells were incubated for a further 3 hours and then the medium was aspirated and the cells were fixed to the glass coverslips by adding ice cold methanol and incubating at −20° C. for 30 mins. The coverslips with the transfected cells fixed to them were mounted on slides and the cellular localisation of the GFP tagged GR was analysed by fluorescent microscopy using an Axioplan 2 microscope (Zeiss, Oberkochen, Germany) and KS300 v3.0 analysis software (Zeiss).

The target in data set [4] is T3, endogenous GR (Homo sapiens, UniProt P04150).
T3 construct: This cell line contains functional endogenous GR; endogenous in cells; host or cells: A549
T3 sequence (P04150 1-777): T1 sequence (P04150 1-777)
As to the kind of experiment: Transrepression assay using endogenous GR in the A549 lung epithelial cell line (TNF, NRE luciferase). In kind it is cell-based. The note with it: compound G at 1, 10, 100 and 500 nM.
Text: as §1
In this assay TNF was used to stimulate NFkB activity in a cell line that expressed endogenous GR. The ability of NFkB to activate an NRE “driving” a luciferase reporter gene could then be repressed by GR in a ligand dependent manner and, therefore, used to measure transrepression.
COS7 cells were transfected with 3 μg NRE-Luc per 10 cm tissue culture dish. The cells were plated out in to 24 well plates after transfection and left for 18 hours to recover before the steroids of FIGS. 1 and 2 were added. Next TNF was added to the samples after 3 hours incubation with the steroids and after another 15 hours the cells were lysed and a luciferase assay was performed.

The subject of data set [5] is tyrosine amino transferase (TAT). As to the kind of experiment: Quantitation of tyrosine amino transferase (TAT) in the livers of air pouch mice. In kind it is in vivo. The following applies: 3 μg i.p., FIG. 22. How it is done: (§2) At time 0, mice received either 0.5 ml of zymosan (1 mg) (group A, B, C) injected locally into the air-pouch. Group D and E were left untreated at this time-point. At 4 h post-zymosan the animals were placed in CO2. Air-pouches were then washed with 2 ml of PBS containing 3 mM EDTA, and livers were recovered and snap frozen for later analysis.
Quantitation of Tyrosine Amino Transferase (TAT) Protein in the Livers: In this method a colourimetric approach is used to quantitate TAT activity. The TAT enzyme catalyses the following reaction: L-tyrosine+2-oxoglutarate⇄4-hydroxyphenylpyruvate (pHPP)+L-glutamate
This reaction also requires pyridoxal phosphate (PLP) as a co-factor. Strong alkali conditions can then be used to convert pHPP to p-hydroxybenzaldehyde (pHBA) and oxalate. The amount of pHBA can then be assessed by measuring its absorbance at 331 nm (extinction coefficient 19,900 M^−1cm^−1) this figure is then assumed to be directly proportional to TAT activity. Livers were homogenized and the cells were stored on ice. […]
For each reaction a control reaction was set up without the ketoglutarate. […] The samples were incubated at room temperature for a further 30 mins and then the absorbance of each sample was assessed at 331 nm on a spectrophotometer (Ultrospec III, Pharmacia).

In data set [6] the test system is zymosan induced neutrophil migration. As to the kind of experiment: Air pouch model of inflammation, zymosan induced neutrophil migration. Format: in vivo, mice. The method, then:
Male outbred Swiss albino mice (18-20 g body weight) were purchased from Bantin and Kingman (T.O. strain; Hull, Humberside) and maintained on a standard chow pellet diet with tap water ad libitum and a 12:00 h light/dark cycle. All animals were housed for 3 days prior to experimentation to allow body weight to reach 20-22 g. On the day of experiment mice ranged from 24-26 g.
Air-pouches were formed on the back of mice by air injection (2.5 ml s.c.) on day 0 and day 3 (Perretti and Flower, 1993).
Zymosan A was allowed to defrost at room temperature for 30 min prior to being added to sterile PBS at a concentration of 2 mg/ml forming a homogenous suspension.
as §2
The number of migrated leukocytes (≧90% polymorphonuclear leukocytes, PMN) was determined in the lavage fluid from each air-pouch, by taking an aliquot (100 μl) of the lavage fluid and diluting 1:10 in Turk's solution (0.01% crystal violet in 3% acetic acid). The samples were then vortexed and 10 μl of the stained cell solution were placed in a Neubauer haematocymometer and neutrophils numbers counted using a light microscope (Olympus B061).
Neutrophil numbers were compared between groups using ANOVA plus the Bonferroni test. TAT levels were compared using a t-test.

Regarding `CCCNC(=O)OCC(=O)C1(O)C(C)CC2C3CCC4=CC(=O)C=CC4(C)C3(F)C(O)CC21C` (stereo not shown) [Compound H], the “repression of P65 stimulation of an NFkB response element compared with dexamethasone” value in data set [1] is “less potent than dexamethasone but produced the same maximal response at 100 nM”. Further, in data set [2], the “repression of IL-8 production after TNF activation” value is “exhibited transrepression”. Moreover, in data set [3], the “nuclear translocation of the GFP tagged glucocorticoid receptor” value is “caused nuclear localisation”. Also, in data set [4], the “repression of TNF activation of A549 cells (NRE reporter gene)” value was “exhibited transrepression”.

For the compound `C[C@@H]1C[C@H]2[C@@H]3CCC4=CC(=O)C=C[C@]4(C)[C@@]3(F)[C@@H](O)C[C@]2(C)[C@@]1(O)C(=O)CO` [Dexamethasone, reference compound], in data set [5], the “liver TAT level compared with vehicle control groups” value is listed as “further elevation of TAT”. Also, the “Neutrophils (10^6 per mouse)” value in data set [6] (3 μg i.p. at -1 h, Zymosan 1 mg into air-pouch, 4 h time-point, mean ± S.E. of 8 mice) is recorded as 6.23 ± 0.44 * 10^6 per mouse. Also, in data set [6] (3 μg i.p., zymosan air pouch, 4 h), the “reduction of neutrophil accumulation” value is approximately 30%.

These data come from patent US7763596B2, “Selective glucocorticoid receptor agonists” (The University of Manchester, priority 2000, dated 2010).
